Assays:
[1] = tested on: Pseudomonas aeruginosa; Staphylococcus aureus; Candida albicans; Aspergillus niger; test: antimicrobial zone inhibition technique, activity summary over four test organisms; assay type: cell-based; conditions: 0.50% by weight in water; for Comments (antimicrobial activity in words): B = bacteria, Y = yeast, M = mold; for Score (sum of the four organism scores): lower score = greater activity
Experimental: (§1) A study was conducted to determine the antimicrobial capability of four (4) SugaQuat (alkyl polyglucoside) variations utilizing the zone inhibition technique. The test materials were evaluated for gross antimicrobial activity against a series of four (4) test organisms: Pseudomonas aeruginosa (Gram-negative bacteria); Staphylococcus aureus (Gram-positive bacteria); Candida albicans (yeast) and Aspergillus niger (mold) utilizing the zone inhibition technique.
(§2) • Sodium Lauryl Sulfate (0.50% by weight concentration in water). • Sodium Laureth 2 Sulfate (0.50% by weight concentration in water). • Example 3 (0.50% by weight concentration in water). • Example 4 (0.50% by weight concentration in water). • Example 8 (0.50% by weight concentration in water). • Example 9 (0.50% by weight concentration in water). • Example 7 (0.50% by weight concentration in water). Activity Summary • SCORING: • 1=Excellent; 2=Very Good; 3=Good; 4=OK (moderate); 6=Poor; 8=No Activity Control Compounds

[2] = salon half head study of detergency (cleanliness of washed hair); assay type: in vivo; conditions: 5% solution; rated by the test person, scale 1 (poor) to 5 excellent
Experimental: Detergency was also studies. The cleanliness of hair washed in the salon in half head studies was conducted. A 5% solution of the composition of the present invention was evaluated. The person having the test run was asked to evaluate the following samples for cleanliness of the hair. The scale was 1 (poor) to 5 excellent.

[3] = salon half head study of conditioning (combability and softness) and wet comb of washed hair; assay type: in vivo; conditions: 5% solution; rated by the test person, scale 1 (poor) to 5 excellent
Experimental: Conditioning was studied. The wet comb properties of hair washed in the salon in half head studies was conducted. Evaluation of the dry hair was also evaluated. A 5% solution of the composition of the present invention was evaluated. The person having the test run was asked to evaluate the following samples for combability and softness of the hair. The scale was 1 (poor) to 5 excellent.

[4] = modified Ross-Miles Foam Test; assay type: physicochemical; conditions: 1% active in water, 66-67 °C, shaken ten times; time point not stated; higher is better
Description: Sodium Lauryl sulfate is one of the most commonly used anionic surfactants. While it is a good detergent and produces large volume of foam, it is irritating and has no conditioning properties. In fact, it strips the oil from hair leaving the hair dry and fly away. Compounds of the present invention compare favorably with sodium lauryl sulfate in foam levels, and detergency, but also are non-irritating, conditioning and provide self-preserving properties. This coupled with the fact that they are derived from natural sugars, makes them the perfect single surfactant for personal care formulation. The following compounds were evaluated at 1% active in water. The higher the foam, the better.
The foaming properties of the compositions were also evaluated by a modified “Ross-Miles Foam Test”. This compares the foaming tendencies of different products or surfactants in water at various temperatures.
The test is carried out as follows: • 1. 500 ml. of water (the water should be representative of the system^1) was added to a 1000 ml. graduated cylinder having a cylinder diameter 65 mm. Then 18.0-ppm ortho phosphate is added to the cylinder as a buffer. The test is carried out at a temperature of 66° C. to 67° C. • 2. The concentration tested was 1% by weight solids. • 3. Then cylinder with contents is shaken vertically at the specified temperature ten times (the times shaken equals the number of cycles). After the tenth time, the initial foam height (t=0) is recorded in ml. Then the foam level at t=5 minutes and t=30 minutes is recorded. Results

[5] = tested on: Staphylococcus aureus (Gram-positive bacteria); test: antimicrobial zone inhibition technique; assay type: cell-based; design: key: 1=Excellent; 2=Very Good; 3=Good; 4=OK (moderate); 6=Poor; 8=No Activity; conditions: 0.50% by weight in water; lower score = greater activity
Experimental: as §1, §2

Aspergillus niger (mold) = test: antimicrobial zone inhibition technique; assay type: cell-based; design: key: 1=Excellent; 2=Very Good; 3=Good; 4=OK (moderate); 6=Poor; 8=No Activity; conditions: 0.50% by weight in water; lower score = greater activity
Experimental: as §1, §2

Candida albicans (yeast) = test: antimicrobial zone inhibition technique; assay type: cell-based; design: key: 1=Excellent; 2=Very Good; 3=Good; 4=OK (moderate); 6=Poor; 8=No Activity; conditions: 0.50% by weight in water; lower score = greater activity
Experimental: as §1, §2

[6] = tested on: Pseudomonas aeruginosa (Gram-negative bacteria); test: antimicrobial zone inhibition technique; assay type: cell-based; design: key: 1=Excellent; 2=Very Good; 3=Good; 4=OK (moderate); 6=Poor; 8=No Activity; conditions: 0.50% by weight in water; lower score = greater activity
Experimental: as §1, §2

Row | Compound | Comments (antimicrobial activity in words) [1] | Score (sum of the four organism scores) [1] | Detergency Result (cleanliness of the hair) [2] | Conditioning [3] | Wet Comb [3] | Foam Level [4] [mL] | Sa activity score [5] | An activity score (Aspergillus niger (mold)) | Ca activity score (Candida albicans (yeast)) | Psa activity score [6]
1 | CCCCCCCCCCCCOS(=O)(=O)[O-].[Na+] [Sodium Lauryl Sulfate] | No activity | 32 | 5 | 1 | 1 | 900 | 8 | 8 | 8 | 8
2 | Sodium Laureth 2 Sulfate | No activity | 32 | 4 | 1 | 1 | 770 | 8 | 8 | 8 | 8
3 | Sodium laureth 1-sulfate | – | – | – | – | – | 750 | – | – | – | –
4 | Sodium laureth 3-sulfate | – | – | – | – | – | 720 | – | – | – | –
